These results are taken from patent publication US20110150769A1, “IDENTIFICATION AND USE OF COMPOUNDS FOR TREATING PERSISTENT PAIN” (priority 2009, published 2011).

Entries after “also recorded” stand apart in the source; their conditions may differ.

For assay [1], the system named is DRG neurons. In words: Calcium imaging of cultured DRG neurons. Format: cell-based, mouse. The method, then:
Calcium Imaging of Cultured Dorsal Root Ganglia (DRG) Neurons
DRG neurons were plated on poly-D-lysine/laminin-coated coverslips and cultured for 24 hours. […] Briefly, neurons were loaded with Fura 2-acetomethoxy ester (Molecular Probes) for 30 min in dark at room temperature. After washing, neurons were imaged at 340/380 nm excitation to detect intracellular free calcium. All tests were performed with an experimenter blinded to the genotype.

Assay [2] deals with acute thermal nociception in mice. In words: Tail immersion test (50° C.) after intrathecal injection. The format is in vivo, mouse. The following applies: naive WT and Mrgpr-clusterΔ−/− mice, 1 mM, 5 μl i.th. The protocol:
Tail immersion test: mice were gently restrained in a 50-ml conical tube that the mice voluntarily entered. The protruding one third of the tail was then dipped into a 50° C. water bath. Latency to respond to the heat stimulus with vigorous flexion of the tail was measured three times and averaged.
BAM 8-22 was purchased from Tocris (Bristol, UK) and was suspended in 0.9% saline. The drug was injected intrathecally under brief isoflurane (1.5%) anesthesia to reduce stress. A 30-gauge, 0.5-inch needle connected to a 10-μl syringe was inserted into one side of the L5 or L6 spinous process at an angle of approximately 20° above the vertebral column and slipped into the groove between the spinous and transverse processes. The needle was moved carefully forward to the intervertebral space.
To determine whether intrathecal BAM 8-22 also affected acute thermal nociception, tail-immersion tests in naïve WT and Mrgpr-clusterΔ^−/− mice were performed.

The target of assay [3] is T1, mouse MrgprC11 (Mus musculus, UniProt Q8CIP3).
T1 sequence (Q8CIP3 1-322): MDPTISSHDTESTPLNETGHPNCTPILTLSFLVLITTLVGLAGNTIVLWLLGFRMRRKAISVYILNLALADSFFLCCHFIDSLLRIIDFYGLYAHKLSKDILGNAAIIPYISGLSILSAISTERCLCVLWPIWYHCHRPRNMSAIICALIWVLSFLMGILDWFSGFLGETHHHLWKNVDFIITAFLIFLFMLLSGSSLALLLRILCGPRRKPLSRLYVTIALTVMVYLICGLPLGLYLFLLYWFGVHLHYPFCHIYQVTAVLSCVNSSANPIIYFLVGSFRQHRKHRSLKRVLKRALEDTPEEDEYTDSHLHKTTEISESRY
The following applies: Han et al, 2002, Lembo et al.; cited from earlier work.

Assay [4] deals with T2, rat MrgprC (Rattus norvegicus, UniProt Q8R4G1).
T2 sequence (Q8R4G1 1-323): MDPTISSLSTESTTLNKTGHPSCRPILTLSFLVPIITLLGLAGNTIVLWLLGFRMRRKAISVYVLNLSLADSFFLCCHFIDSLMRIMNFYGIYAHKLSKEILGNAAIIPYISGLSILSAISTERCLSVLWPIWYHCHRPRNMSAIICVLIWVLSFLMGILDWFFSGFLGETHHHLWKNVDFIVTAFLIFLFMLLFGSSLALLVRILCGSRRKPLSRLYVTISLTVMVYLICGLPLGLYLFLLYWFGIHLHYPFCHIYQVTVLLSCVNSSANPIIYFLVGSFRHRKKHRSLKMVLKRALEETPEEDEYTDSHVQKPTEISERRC
The following applies: Han et al, 2002, Lembo et al.; cited from earlier work.

The test system of assay [5] is opioid receptors. The following applies: literature; cited from earlier work.

Consider BAM 8-22, for which the “responses in DRG neurons” value was “no responses” in assay [1] (adult mutant (Mrgpr-clusterΔ−/−) DRG neurons) and “few or no responses” in assay [1] (newborn Mrgpr-clusterΔ−/− mice). Besides, the “percentage of DRG neurons responding, WT vs MrgprA1GFP/GFP mice” value in assay [1] (comparison of WT and MrgprA1GFP/GFP mice) is reported as “did not differ significantly”. In assay [2], the “tail flick latency vs pre-drug” value is recorded as “not significantly different; also recorded: did not significantly change”. Moreover, the “activation of mouse MrgprC11” value in assay [3] is on record as “specifically activates”. For the same substance, the “activation of rat MrgprC” value in assay [4] is “specifically activates”. In assay [5], the “activation of opioid receptors” value is listed as “but not opioid receptors”.
